#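 Interpolation was linear, between the two tested concentrations surrounding the appropriate level; five concentrations were tested over 48 hours in 96-well plates. TGI is the concentration that stops growth completely.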
# Tests used:
# Test in all cases: NCI anticancer screen, dose series, 48 h
# 786-0 renal = test system: 786-0 renal
# A498 renal = test system: A498 renal
# A549 NSCLC = test system: A549 NSCLC
# ACHN renal = test system: ACHN renal
# BT-549 breast = test system: BT-549 breast
# CAKI-1 renal = test system: CAKI-1 renal
# CCRF-CEM leukemia = test system: CCRF-CEM leukemia
# COLO 205 colon = test system: COLO 205 colon
# DU-145 prostate = test system: DU-145 prostate
# EKVX NSCLC = test system: EKVX NSCLC
# HCC-2998 colon = test system: HCC-2998 colon
# HCT-116 colon = test system: HCT-116 colon
# HCT-15 colon = test system: HCT-15 colon
# HL-60(TB) leukemia = test system: HL-60(TB) leukemia
# HOP-62 NSCLC = test system: HOP-62 NSCLC
# HOP-92 NSCLC = test system: HOP-92 NSCLC
# HS 578T breast = test system: HS 578T breast
# HT29 colon = test system: HT29 colon
# IGROV1 ovarian = test system: IGROV1 ovarian
# K-562 leukemia = test system: K-562 leukemia
# KM12 colon = test system: KM12 colon
# LOX IMVI melanoma = test system: LOX IMVI melanoma
# M14 melanoma = test system: M14 melanoma
# MCF7 breast = test system: MCF7 breast
# MDA-MB-231 breast = test system: MDA-MB-231 breast
# MDA-MB-435 = test system: MDA-MB-435
# MDA-N = test system: MDA-N
# MOLT-4 leukemia = test system: MOLT-4 leukemia
# NCI-H226 lung = test system: NCI-H226 lung
# NCI-H23 lung = test system: NCI-H23 lung
# NCI-H460 lung = test system: NCI-H460 lung
# NCI-H522 lung = test system: NCI-H522 lung
# NCI/ADR-RES ovarian = test system: NCI/ADR-RES ovarian
# OVCAR-3 ovarian = test system: OVCAR-3 ovarian
# OVCAR-4 ovarian = test system: OVCAR-4 ovarian
# OVCAR-5 ovarian = test system: OVCAR-5 ovarian
# OVCAR-8 ovarian = test system: OVCAR-8 ovarian
# PC-3 prostate = test system: PC-3 prostate
# RPMI-8226 leukemia = test system: RPMI-8226 leukemia
# RXF 393 renal = test system: RXF 393 renal
# SF-268 CNS = test system: SF-268 CNS
# SF-295 CNS = test system: SF-295 CNS
# SF-539 CNS = test system: SF-539 CNS
# SK-MEL-2 melanoma = test system: SK-MEL-2 melanoma
# SK-MEL-28 melanoma = test system: SK-MEL-28 melanoma
# SK-MEL-5 melanoma = test system: SK-MEL-5 melanoma
# SK-OV-3 ovarian = test system: SK-OV-3 ovarian
# SN12C renal = test system: SN12C renal
# SNB-19 CNS = test system: SNB-19 CNS
# SNB-75 CNS = test system: SNB-75 CNS
# SR leukemia = test system: SR leukemia
# SW-620 colon = test system: SW-620 colon
# T-47D breast = test system: T-47D breast
# TK-10 renal = test system: TK-10 renal
# U251 CNS = test system: U251 CNS
# UACC-257 melanoma = test system: UACC-257 melanoma
# UACC-62 melanoma = test system: UACC-62 melanoma
# UO-31 renal = test system: UO-31 renal
# DMS 114 small cell lung = test system: DMS 114 small cell lung
# DMS 273 small cell lung = test system: DMS 273 small cell lung
# KM20L2 colon = test system: KM20L2 colon
# M19-MEL melanoma = test system: M19-MEL melanoma
# MALME-3M melanoma = test system: MALME-3M melanoma
# SNB-78 CNS = test system: SNB-78 CNS
compound,measurement,setting,value
Cc1c(C(C)C)cc(OCCO)cc1C(C)C,TGI,786-0 renal,63 µM
same,TGI,A498 renal,96.6 µM
same,TGI,A549 NSCLC,> 100 µM
same,TGI,ACHN renal,> 100 µM
same,TGI,BT-549 breast,> 100 µM
same,TGI,CAKI-1 renal,> 100 µM
same,TGI,CCRF-CEM leukemia,> 100 µM
same,TGI,COLO 205 colon,> 100 µM
same,TGI,DU-145 prostate,> 100 µM
same,TGI,EKVX NSCLC,70.9 µM
same,TGI,HCC-2998 colon,> 100 µM
same,TGI,HCT-116 colon,> 100 µM
same,TGI,HCT-15 colon,> 100 µM
same,TGI,HL-60(TB) leukemia,56.9 µM
same,TGI,HOP-62 NSCLC,> 100 µM
same,TGI,HOP-92 NSCLC,57 µM
same,TGI,HS 578T breast,93.3 µM
same,TGI,HT29 colon,81.1 µM
same,TGI,IGROV1 ovarian,> 100 µM
same,TGI,K-562 leukemia,> 100 µM
same,TGI,KM12 colon,> 100 µM
same,TGI,LOX IMVI melanoma,63.4 µM
same,TGI,M14 melanoma,> 100 µM
same,TGI,MCF7 breast,> 100 µM
same,TGI,MDA-MB-231 breast,80 µM
same,TGI,MDA-MB-435,> 100 µM
same,TGI,MDA-N,> 100 µM
same,TGI,MOLT-4 leukemia,> 100 µM
same,TGI,NCI-H226 lung,> 100 µM
same,TGI,NCI-H23 lung,> 100 µM
same,TGI,NCI-H460 lung,> 100 µM
same,TGI,NCI-H522 lung,81.5 µM
same,TGI,NCI/ADR-RES ovarian,> 100 µM
same,TGI,OVCAR-3 ovarian,> 100 µM
same,TGI,OVCAR-4 ovarian,> 100 µM
same,TGI,OVCAR-5 ovarian,> 100 µM
same,TGI,OVCAR-8 ovarian,> 100 µM
same,TGI,PC-3 prostate,96.2 µM
same,TGI,RPMI-8226 leukemia,74.3 µM
same,TGI,RXF 393 renal,36.2 µM
same,TGI,SF-268 CNS,> 100 µM
same,TGI,SF-295 CNS,> 100 µM
same,TGI,SF-539 CNS,> 100 µM
same,TGI,SK-MEL-2 melanoma,57.3 µM
same,TGI,SK-MEL-28 melanoma,> 100 µM
same,TGI,SK-MEL-5 melanoma,38.1 µM
same,TGI,SK-OV-3 ovarian,> 100 µM
same,TGI,SN12C renal,93.1 µM
same,TGI,SNB-19 CNS,> 100 µM
same,TGI,SNB-75 CNS,> 100 µM
same,TGI,SR leukemia,73.8 µM
same,TGI,SW-620 colon,> 100 µM
same,TGI,T-47D breast,> 100 µM
same,TGI,TK-10 renal,> 100 µM
same,TGI,U251 CNS,> 100 µM
same,TGI,UACC-257 melanoma,> 100 µM
same,TGI,UACC-62 melanoma,> 100 µM
same,TGI,UO-31 renal,> 100 µM
COC(=O)c1c(C)oc2ccc(OC(C)=O)cc12,TGI,786-0 renal,> 100 µM
same,TGI,A498 renal,> 100 µM
same,TGI,A549 NSCLC,> 100 µM
same,TGI,ACHN renal,> 100 µM
same,TGI,CAKI-1 renal,> 100 µM
same,TGI,CCRF-CEM leukemia,> 100 µM
same,TGI,COLO 205 colon,> 100 µM
same,TGI,DMS 114 small cell lung,> 100 µM
same,TGI,DMS 273 small cell lung,> 100 µM
same,TGI,EKVX NSCLC,> 100 µM
same,TGI,HCC-2998 colon,> 100 µM
same,TGI,HCT-116 colon,> 100 µM
same,TGI,HCT-15 colon,> 100 µM
same,TGI,HL-60(TB) leukemia,> 100 µM
same,TGI,HOP-62 NSCLC,> 100 µM
same,TGI,HT29 colon,> 100 µM
same,TGI,IGROV1 ovarian,> 100 µM
same,TGI,K-562 leukemia,> 100 µM
same,TGI,KM12 colon,> 100 µM
same,TGI,KM20L2 colon,> 100 µM
same,TGI,LOX IMVI melanoma,> 100 µM
same,TGI,M14 melanoma,> 100 µM
same,TGI,M19-MEL melanoma,> 100 µM
same,TGI,MALME-3M melanoma,> 100 µM
same,TGI,MOLT-4 leukemia,> 100 µM
same,TGI,NCI-H226 lung,> 100 µM
same,TGI,NCI-H23 lung,> 100 µM
same,TGI,NCI-H460 lung,> 100 µM
same,TGI,NCI-H522 lung,> 100 µM
same,TGI,OVCAR-3 ovarian,> 100 µM
same,TGI,OVCAR-4 ovarian,> 100 µM
same,TGI,OVCAR-5 ovarian,> 100 µM
same,TGI,OVCAR-8 ovarian,> 100 µM
same,TGI,RPMI-8226 leukemia,> 100 µM
same,TGI,RXF 393 renal,> 100 µM
same,TGI,SF-268 CNS,> 100 µM
same,TGI,SF-295 CNS,> 100 µM
same,TGI,SF-539 CNS,> 100 µM
same,TGI,SK-MEL-2 melanoma,> 100 µM
same,TGI,SK-MEL-28 melanoma,> 100 µM
same,TGI,SK-MEL-5 melanoma,> 100 µM
same,TGI,SK-OV-3 ovarian,> 100 µM
same,TGI,SN12C renal,> 100 µM
same,TGI,SNB-19 CNS,> 100 µM
same,TGI,SNB-75 CNS,> 100 µM
same,TGI,SNB-78 CNS,> 100 µM
same,TGI,SR leukemia,> 100 µM
same,TGI,SW-620 colon,> 100 µM
same,TGI,TK-10 renal,> 100 µM
same,TGI,U251 CNS,> 100 µM
same,TGI,UACC-257 melanoma,> 100 µM
same,TGI,UACC-62 melanoma,> 100 µM
same,TGI,UO-31 renal,> 100 µM
COc1ccc(C2CC(c3c(C)nn(-c4ccccc4)c3-c3ccc(C)cc3O)=NN2c2ccccc2)cc1 (stereo not given),TGI,786-0 renal,> 100 µM
same,TGI,A498 renal,> 100 µM
same,TGI,A549 NSCLC,> 100 µM
same,TGI,ACHN renal,> 67.4 µM
same,TGI,BT-549 breast,> 100 µM
same,TGI,CAKI-1 renal,> 100 µM
same,TGI,CCRF-CEM leukemia,> 100 µM
same,TGI,COLO 205 colon,> 100 µM
same,TGI,DU-145 prostate,> 100 µM
same,TGI,EKVX NSCLC,> 100 µM
same,TGI,HCC-2998 colon,> 100 µM
same,TGI,HCT-116 colon,> 100 µM
same,TGI,HCT-15 colon,> 100 µM
same,TGI,HL-60(TB) leukemia,> 100 µM
same,TGI,HOP-62 NSCLC,> 100 µM
same,TGI,HOP-92 NSCLC,> 100 µM
same,TGI,HS 578T breast,> 100 µM
same,TGI,HT29 colon,> 44 µM
same,TGI,IGROV1 ovarian,> 100 µM
same,TGI,K-562 leukemia,> 100 µM
same,TGI,KM12 colon,> 43.7 µM
same,TGI,LOX IMVI melanoma,> 100 µM
same,TGI,M14 melanoma,> 100 µM
same,TGI,MALME-3M melanoma,> 100 µM
same,TGI,MCF7 breast,> 100 µM
same,TGI,MDA-MB-231 breast,> 100 µM
same,TGI,MDA-MB-435,> 100 µM
same,TGI,MDA-N,> 100 µM
same,TGI,MOLT-4 leukemia,> 100 µM
same,TGI,NCI-H226 lung,> 100 µM
same,TGI,NCI-H23 lung,> 30.3 µM
same,TGI,NCI-H460 lung,> 41.7 µM
same,TGI,NCI-H522 lung,> 100 µM
same,TGI,NCI/ADR-RES ovarian,> 100 µM
same,TGI,OVCAR-3 ovarian,> 100 µM
same,TGI,OVCAR-4 ovarian,> 100 µM
same,TGI,OVCAR-5 ovarian,> 100 µM
same,TGI,OVCAR-8 ovarian,> 100 µM
same,TGI,PC-3 prostate,> 100 µM
same,TGI,RPMI-8226 leukemia,> 100 µM
same,TGI,RXF 393 renal,> 100 µM
same,TGI,SF-268 CNS,> 100 µM
same,TGI,SF-295 CNS,> 100 µM
same,TGI,SF-539 CNS,> 100 µM
same,TGI,SK-MEL-2 melanoma,> 52.3 µM
same,TGI,SK-MEL-28 melanoma,> 100 µM
same,TGI,SK-MEL-5 melanoma,> 100 µM
same,TGI,SK-OV-3 ovarian,> 100 µM
same,TGI,SN12C renal,> 100 µM
same,TGI,SNB-19 CNS,> 100 µM
same,TGI,SNB-75 CNS,> 100 µM
same,TGI,SR leukemia,> 100 µM
same,TGI,SW-620 colon,> 100 µM
same,TGI,T-47D breast,> 100 µM
same,TGI,TK-10 renal,> 100 µM
same,TGI,U251 CNS,> 100 µM
same,TGI,UACC-257 melanoma,> 100 µM
same,TGI,UACC-62 melanoma,> 100 µM
same,TGI,UO-31 renal,> 100 µM

# From PubChem BioAssay (NCI)
